Measurements from patent publication US9890117B2, “Benzamide compounds and related methods of use” (Northwestern University, priority 2012, dated 2018).
≈ marks a conversion by molar mass, not a printed value.

Columns and labels:
[1] = target: T1, catalytically active fragment of SIRT3 (Homo sapiens, UniProt Q9NTG7); experiment: Fluor-de-Lys biochemical sirtuin deacetylation assay, SIRT3 counter-screen; conditions: 10 μM counter-screen
T1 construct: the catalytically active fragment of SIRT3
T1 sequence (Q9NTG7 118-380 limits assumed): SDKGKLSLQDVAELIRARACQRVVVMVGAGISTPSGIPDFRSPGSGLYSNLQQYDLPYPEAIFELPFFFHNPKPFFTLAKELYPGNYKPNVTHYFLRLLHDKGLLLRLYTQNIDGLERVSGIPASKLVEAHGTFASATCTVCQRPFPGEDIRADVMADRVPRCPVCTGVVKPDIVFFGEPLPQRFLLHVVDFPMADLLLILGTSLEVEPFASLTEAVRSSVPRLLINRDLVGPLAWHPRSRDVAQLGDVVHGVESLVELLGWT
Protocol: (§1) To evaluate the potency and selectivity of the synthesized compounds robust, sensitive, and quantitative, biochemical sirtuin deacetylation assays were employed. (SIRT2 then SIRT1 and SIRT3 for selectivity). Sirtuin activity was assessed using the Fluor-de-Lys assay with recombinant active enzymes SIRT1, SIRT2, and the catalytically active fragment of SIRT3, as described in the literature. […] AK-1 was included as the reference compound with each assay. […] Those compounds also were subjected to SIRT1 and SIRT3 assays to determine sirtuin selectivity.
(§2) As discussed above, Tables 1-10 are presented and followed by details relating to the synthesis and characterization of compounds prepared. Inhibition assays and related testing of such compounds are conducted according to well-known literature protocols including those found in Silverman, et al., Biorg. Med. Chem. Lett. 22 (2012) 2789-2793 and the references cited therein, such references and tests incorporated herein by reference.

[2] = target: T2, SIRT1 (Homo sapiens, UniProt Q96EB6); experiment: Fluor-de-Lys biochemical sirtuin deacetylation assay, SIRT1 counter-screen; conditions: for SIRT1 inhibition: 10 μM counter-screen
T2 sequence (Q96EB6 1-747): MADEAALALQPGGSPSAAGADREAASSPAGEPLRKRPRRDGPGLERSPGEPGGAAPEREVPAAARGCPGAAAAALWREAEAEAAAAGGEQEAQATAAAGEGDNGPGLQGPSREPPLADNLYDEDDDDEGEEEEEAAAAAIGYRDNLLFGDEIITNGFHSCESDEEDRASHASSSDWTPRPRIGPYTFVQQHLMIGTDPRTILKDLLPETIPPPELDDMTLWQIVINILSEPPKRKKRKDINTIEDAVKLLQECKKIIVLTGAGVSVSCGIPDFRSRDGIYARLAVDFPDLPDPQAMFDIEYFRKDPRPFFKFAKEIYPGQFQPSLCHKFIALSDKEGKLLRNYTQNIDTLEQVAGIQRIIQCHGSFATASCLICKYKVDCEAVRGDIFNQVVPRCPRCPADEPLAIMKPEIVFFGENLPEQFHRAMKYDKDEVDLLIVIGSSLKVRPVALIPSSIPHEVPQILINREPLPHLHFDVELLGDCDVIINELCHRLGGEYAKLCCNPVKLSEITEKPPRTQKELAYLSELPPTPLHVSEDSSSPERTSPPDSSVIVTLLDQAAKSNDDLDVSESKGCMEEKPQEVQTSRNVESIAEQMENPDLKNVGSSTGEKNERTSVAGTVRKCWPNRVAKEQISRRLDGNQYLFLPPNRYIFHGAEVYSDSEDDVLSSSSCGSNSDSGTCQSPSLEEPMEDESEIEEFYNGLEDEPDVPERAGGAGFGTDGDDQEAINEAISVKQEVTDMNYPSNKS
Protocol: as §1, §2

[3] = Microsomal stability screen, human; conditions: 1 μM
[4] = Microsomal stability screen, mouse; conditions: 1 μM
[5] = PBS Express solubility; conditions: aqueous buffer, kinetic from dmso stock
[6] = target: T3, SIRT2 (Homo sapiens, UniProt Q8IXJ6); experiment: Fluor-de-Lys biochemical sirtuin deacetylation assay, SIRT2
T3 construct: recombinant active enzymes SIRT1, SIRT2, and the catalytically active fragment of SIRT3
T3 sequence (Q8IXJ6 1-389): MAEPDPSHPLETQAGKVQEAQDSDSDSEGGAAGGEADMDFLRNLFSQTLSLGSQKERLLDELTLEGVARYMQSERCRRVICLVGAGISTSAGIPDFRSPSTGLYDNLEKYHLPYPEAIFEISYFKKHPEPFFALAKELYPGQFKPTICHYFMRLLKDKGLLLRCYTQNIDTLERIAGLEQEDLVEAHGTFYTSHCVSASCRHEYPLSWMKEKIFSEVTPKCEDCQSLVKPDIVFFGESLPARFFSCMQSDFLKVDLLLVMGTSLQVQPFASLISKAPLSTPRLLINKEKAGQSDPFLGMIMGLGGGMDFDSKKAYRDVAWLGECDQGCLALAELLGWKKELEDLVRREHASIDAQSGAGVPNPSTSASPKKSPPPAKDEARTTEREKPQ

[7] = Microsomal intrinsic clearance, human; conditions: for microsomal CLint at 1 μM / half-life at 1 μM: human, microsomes
[8] = Plasma half life
[9] = Microsomal intrinsic clearance, mouse; conditions: for microsomal CLint at 1 μM / half-life at 1 μM: mouse, microsomes
[10] = sulfone, sulfoxide, thioether derivatives of C2-8 scaffold

For O=C(Nc1nccs1)c1cccc(S(=O)(=O)Nc2ccc(Cl)cc2)c1 [Compound 31, 3-(N-(4-chlorophenyl)sulfamoyl)-N-(thiazol-2-yl)benzamide], the “SIRT3 inhibition” value [1] was “totally inactive” and the inhibition at 10 µM ([2]; 10 μM) was 65%.
In the case of O=C(Nc1ccc(Cl)cn1)c1cccc(S(=O)(=O)Nc2ccc(Cl)cn2)c1 [Compound 41, N-(5-chloropyridin-2-yl)-3-(N-(5-chloropyridin-2-yl)sulfamoyl)benzamide], the “SIRT3 inhibition” value [1] is reported as “minimal SIRT3 inhibition”.
With CN(c1ccc(F)cc1)S(=O)(=O)c1cccc(C(=O)Nc2ccc(Cl)cn2)c1 [Compound 43, N-(5-chloropyridin-2-yl)-3-(N-(4-fluorophenyl)-N-methylsulfamoyl)benzamide] the “SIRT1 inhibition” value [2] was “minimal SIRT1 inhibition”.
In the case of CN(c1ccc(F)cc1)S(=O)(=O)c1cccc(C(=O)Nc2ccc(C#N)cc2)c1 [Compound 47, N-(4-Cyanophenyl)-3-(N-(4-fluorophenyl)-N-methylsulfamoyl)benzamide], the “Mean remaining parent NADPH-free (%)” value [3] is reported as 89% and the “Mean remaining parent with NADPH (%)” value [3] is reported as 16%.
For CN(c1ccc(Cl)cc1)S(=O)(=O)c1cccc(C(=O)Nc2ccc(C(F)(F)F)cn2)c1 [Compound 56, 3-(N-(4-chlorophenyl)-N-methylsulfamoyl)-N-(5-(trifluoromethyl)pyridin-2-yl)benzamide], the “SIRT1 inhibition” value [2] was “minimal SIRT1 inhibition”.
In the case of CN(c1ccc(Cl)cc1)S(=O)(=O)c1cccc(C(=O)Nc2ccc(O)cn2)c1 [Compound 58, 3-(N-(4-chlorophenyl)-N-methylsulfamoyl)-N-(5-hydroxypyridin-2-yl)benzamide], the “SIRT3 inhibition” value [1] is reported as “minimal SIRT3 inhibition”.
In the case of CN(c1ccc(Cl)cc1)S(=O)(=O)c1cccc(C(=O)Nc2ccc(C#N)cn2)c1 [Compound 71, 3-(N-(4-Chlorophenyl)-N-methylsulfamoyl)-N-(5-cyanopyridin-2-yl)benzamide], the “Mean remaining parent NADPH-free (%)” value [3] is reported as 91%, the “Mean remaining parent with NADPH (%)” value [3] is reported as 2% and the “Mean remaining parent NADPH-free (%)” value [4] is reported as 96%. The “Mean remaining parent with NADPH (%)” value [4] was 1%.
In the case of CC(=O)c1ccc(N(C)S(=O)(=O)c2cccc(C(=O)Nc3ccc(Cl)cc3)c2)cc1 [Compound 102, 3-(N-(4-Acetylphenyl)-N-methylsulfamoyl)-N-(4-chlorophenyl)benzamide], the “Mean remaining parent NADPH-free (%)” value [3] is reported as 94%, the “Mean remaining parent with NADPH (%)” value [3] is reported as 12% and the “Mean remaining parent NADPH-free (%)” value [4] is reported as 108%. For the same molecule, the “Mean remaining parent with NADPH (%)” value [4] was 0%.
In the case of CC(=O)c1ccc(N(C)S(=O)(=O)c2cccc(C(=O)Nc3ccc(Cl)cn3)c2)cc1 [Compound 103, 3-(N-(4-Acetylphenyl)-N-methylsulfamoyl)-N-(5-chloropyridin-2-yl)benzamide], the “Mean remaining parent NADPH-free (%)” value [3] is reported as 82%, the “Mean remaining parent with NADPH (%)” value [3] is reported as 12% and the “Mean remaining parent NADPH-free (%)” value [4] is reported as 91%. The “Mean remaining parent with NADPH (%)” value [4] was 0%.
With CC(=O)c1ccc(N(C)S(=O)(=O)c2cccc(C(=O)Nc3ccc(C#N)cc3)c2)cc1 [Compound 106, 3-(N-(4-Acetylphenyl)-N-methylsulfamoyl)-N-(4-cyanophenyl)benzamide] the “SIRT3 inhibition” value [1] was “minimal SIRT3 inhibition” and the “SIRT1 inhibition” value [2] was “minimal SIRT1 inhibition”.
With N#Cc1ccc(NC(=O)c2cccc(S(=O)(=O)Cc3ccc(Cl)cc3)c2)cc1 [Compound 174, 3-((4-Chlorobenzyl)sulfonyl)-N-(4-cyanophenyl)benzamide] the “Mean remaining parent NADPH-free (%)” value [3] was 93%, the “Mean remaining parent with NADPH (%)” value [3] was 89% and the solubility at 45 min [5] was 62.5 µM (≈ 25.7 µg/mL). For the same molecule, the solubility at 16 h [5] was 62.5 µM (≈ 25.7 µg/mL), the “Mean remaining parent NADPH-free (%)” value [4] was 100% and the “Mean remaining parent with NADPH (%)” value [4] was 68%. The inhibition at 10 µM [6, 10] was 40%, the “potency compared with 59” value ([6]; SIRT2 assay (61 also cell-based tubulin deacetylation assay)) was “more potent than 59” and the “SIRT2 inhibition potency compared with AK-1” value ([6]; dose-response, five doses, side-by-side with AK-1) was “equal or just slightly better potency”.
In the case of C[S+]([O-])c1ccc(NC(=O)c2cccc(SCc3ccc(Cl)cc3)c2)cc1 (stereo not shown) [Compound 182, 3-((4-chlorobenzyl)thio)-N-(4-(methylsulfinyl)phenyl)benzamide], the solubility at 45 min [5] is reported as 15.6 µM (≈ 6.49 µg/mL), the solubility at 16 h [5] is reported as 15.6 µM (≈ 6.49 µg/mL) and the “% remaining 60 min” value ([7]; 1 μM, 60 min) is reported as 5.3%. The microsomal CLint at 1 μM ([7]; NADPH-dependent CLint) was 241 µL/min/mg, the half-life at 1 μM ([7]; NADPH-dependent T1/2 (min)) was 9.6 min and the microsomal CLint at 1 μM ([7]; NADPH-free CLint) was 39 µL/min/mg. For the same molecule, the half-life at 1 μM ([7]; NADPH-free T1/2 (min)) was 59 min, the “Fraction remaining, last time point (%)” value ([8]; Mouse plasma, 5 μM) was 62% and the half-life at 5 μM ([8]; mouse, plasma) was 89 min. The inhibition at 10 µM [6, 10] was 60%, the “% remaining 60 min” value ([9]; 1 μM, 60 min) was 0.8% and the microsomal CLint at 1 μM ([9]; NADPH-dependent CLint) was 445 µL/min/mg. It also gave a half-life at 1 μM ([9]; NADPH-dependent T1/2 (min)) of 5.2 min, a microsomal CLint at 1 μM ([9]; NADPH-free CLint) of 58 µL/min/mg and a half-life at 1 μM ([9]; NADPH-free T1/2 (min)) of 40 min.
With CC(=O)c1ccc(COc2cncc(C(=O)Nc3ccc(C#N)cc3)c2)cc1 [Compound 216u, 5-((4-acetylbenzyl)oxy)-N-(4-cyanophenyl)nicotinamide] the melting point was 228 to 229 °C (dec.) and the inhibition at 10 µM [6] was 0%.
With N#Cc1ccc(COc2cc(O)cc(C(=O)Nc3ccc(C#N)cc3)c2)cc1 [Compound 216w, 3-((4-cyanobenzyl)oxy)-N-(4-cyanophenyl)-5-hydroxybenzamide] the melting point was 199 to 201 °C and the inhibition at 10 µM [6] was 15%.
Work on N#Cc1ccc(NC(=O)c2cccc(OCc3ccc(F)c(F)c3)c2)cc1 [Compound 216z, N-(4-cyanophenyl)-3-((3,4-difluorobenzyl)oxy)benzamide] yielded a melting point of 173 to 174 °C and an inhibition at 10 µM [6] of 64%.
N#Cc1ccc(NC(=O)c2cccc(NCc3ccc(F)cc3)c2)cc1 [Compound 221a, N-(4-cyanophenyl)-3-((4-fluorobenzyl)amino)benzamide] showed a melting point of 173 to 174 °C and an inhibition at 10 µM [6] of 41%.
In the case of CN(Cc1ccc(F)cc1)c1cccc(C(=O)Nc2ccc(C#N)cc2)c1 [Compound 221c, N-(4-cyanophenyl)-3-((4-fluorobenzyl)(methyl)amino)benzamide], the melting point is reported as 176 to 177 °C and the inhibition at 10 µM [6] is reported as 75%.
For CC(C)[N+](C)(CCOC(=O)C1c2ccccc2Oc2ccccc21)C(C)C [Propantheline, reference compound], the “Fraction remaining, last time point (%)” value ([8]; Mouse plasma, 5 μM) was 3.4% and the “Plasma T1/2” value ([8]; Mouse plasma, 5 μM) was 18 min.
